Measured values published in patent publication US9518046B2 (Calitor Sciences, LLC, priority 2015, dated 2016).

Legend:
[1] = Pharmacokinetics after intravenous and oral administration in mice; type: in vivo; conditions: Mouse; iv dosing 1 mg/kg
Protocol: (§1) The LC/MS/MS system used in the analysis consists of an Agilent 1200 Series vacuum degasser, binary pump, well-plate autosampler, thermostatted column compartment, the Agilent G6430 Triple Quadrupole Mass Spectrometer with an electrosprayionization (ESI) source. Quantitative analysis was carried out using MRM mode. The parameters for MRM transitions are in the Table A.
(§2) An Agilent XDB-C18, 2.1×30 mm, 3.5 M column was used for the analysis. 5 L of the samples were injected. Analysis condition: The mobile phase was 0.1% formic acid in water (A) and 0.1% formic acid in methanol (B). The flow rate was 0.4 mL/min. And the gradient of Mobile phase was in the Table B.
Alternatively, an Agilent 6330 series LC/MS/MS spectrometer equipped with G1312A binary pumps, a G1367A autosampler and a G1314C UV detector were used in the analysis. An ESI source was used on the LC/MS/MS spectrometer. The analysis was done in positive ion mode as appropriate and the MRM transition for each analyte was optimized using standard solution. A Capcell MP-C18 100×4.6 mm I.D., […] column (Phenomenex, Torrance, Calif., USA) was used during the analysis. […]
The compounds disclosed herein are assessed in pharmacokinetic studies in mice, rats, dogs or monkeys. […] The plasma solutions are collected, stored at −20° C. or −70° C. until analyzed by LC/MS/MS as described above.

[2] = Pharmacokinetics after intravenous and oral administration in dogs; type: in vivo; conditions: Dog; iv dosing 1 mg/kg
Protocol: as §1, §2
(§3) Alternatively, an Agilent 6330 series LC/MS/MS spectrometer equipped with G1312A binary pumps, a G1367A autosampler and a G1314C UV detector were used in the analysis. An ESI source was used on the LC/MS/MS spectrometer. The analysis was done in positive ion mode as appropriate and the MRM transition for each analyte was optimized using standard solution. A Capcell MP-C18 100×4.6 mm I.D., […] column (Phenomenex, Torrance, Calif., USA) was used during the analysis. The mobile phase was 5 mM ammonia acetate, 0.1% MeOH in water (A): 5 mM ammonia acetate, 0.1% MeOH in acetonitrile (B) (70:30, v/v). The flow rate was 0.6 mL/min. Column was maintained at ambient temperature. 20 μL of the samples were injected.
(§4) The compounds disclosed herein are assessed in pharmacokinetic studies in mice, rats, dogs or monkeys. The compounds are administered as a water solution, 2% HPMC+1% TWEEN®80 in water solution, 5% DMSO+5% solutol in saline, 4% MC suspension or capsule. For the intravenous administration, the animals are generally given at 1 or 2 mg/kg dose. For the oral (p.o.) dosing, mice and rats are generally given 5 or 10 mg/kg dose, and dogs and monkeys are generally given 10 mg/kg dose. […] The plasma solutions are collected, stored at −20° C. or −70° C. until analyzed by LC/MS/MS as described above.

[3] = Pharmacokinetics after intravenous and oral administration in monkeys; type: in vivo; conditions: Monkey; iv dosing 1 mg/kg
Protocol: as §1, §2, §3, §4

[4] = Pharmacokinetics after intravenous and oral administration in rats; type: in vivo; conditions: Rats; iv dosing; dose 1 mg/kg (0.5 for Ex. 1, 10, 11, 35; 0.48 for Ex. 24)
How it was run: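 Dosing used solution, suspension or capsule formulations: 1 or 2 mg/kg IV in all species; PO 5 or 10 mg/kg in mice and rats, 10 mg/kg in dogs and monkeys. Plasma sampled from 0.083 or 0.25 h up to 24 h post-dose; concentrations determined by LC/MS/MS in MRM mode.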

protein kinases = conditions: literature; cited from earlier work
[5] = murine model of asthma, ovalbumin-induced airway inflammation; literature; cited from earlier work
PI3Kδ = conditions: literature; cited from earlier work
[6] = literature; cited from earlier work
[7] = literature; cited from earlier work; remark: listed apart in the source

| CL/F [1] [mL/min/kg] | CL/F [2] [mL/min/kg] | CL/F [3] [mL/min/kg] | CL/F [4] [mL/min/kg] | SMILES | other results |
| --- | --- | --- | --- | --- | --- |
| 18.8 | 1.83 | 7.17 | 28.3 | Cc1nnc(-c2c(N)ncnc2N[C@@H](C)c2nc3cccc(Cl)c3c(=O)n2-c2ccccc2)o1 [Ex. 64, (S)-2-(1-((6-amino-5-(5-methyl-1,3,4-oxadiazol-2-yl)pyrimidin-4-yl)amino)ethyl)-5-chloro-3-phenylquinazolin-4(3H)-one] |  |
|  |  |  |  | Cc1ccccc1-n1c(Cn2cnc3c(N)ncnc32)nc2cccc(C)c2c1=O [IC87114] | activity against any protein kinases tested (protein kinases): no activity; effect on inflammation and disease [5]: significantly ameliorate inflammation and disease; inhibits PI3Kδ (PI3Kδ): high nanomolar range (triple digit) |
| 31.7 | 6.17 | 15.3 |  | Cc1noc(-c2c(N)ncnc2N[C@@H](C)c2nc3cccc(Cl)c3c(=O)n2-c2ccccc2)n1 [Ex. 65, (S)-2-(1-((6-amino-5-(3-methyl-1,2,4-oxadiazol-5-yl)pyrimidin-4-yl)amino)ethyl)-5-chloro-3-phenylquinazolin-4(3H)-one] |  |
|  | 9.67 | 11.6 | 21.5 | CC[C@H](Nc1ncnc(N)c1-c1nc(C)no1)c1nc2cccc(Cl)c2c(=O)n1C1CC1 [Ex. 4, (S)-2-(1-((6-amino-5-(3-methyl-1,2,4-oxadiazol-5-yl)pyrimidin-4-yl)amino)-propyl)-5-chloro-3-cyclopropylquinazolin-4(3H)-one] |  |
|  |  |  |  | O=C1NC(=O)/C(=C\c2ccc3nccnc3c2)S1 [AS 605240] | effect on onset of disease in model of systemic lupus erythematosis [6]: delay onset of disease; efficacy in mouse model of rheumatoid arthritis [7]: efficacious |
